# In article PMC7255104, “Receptor Characterization and Functional Activity of Pyrokinins on the Hindgut in the Adult Mosquito, Aedes aegypti” (Frontiers in Physiology, 2020):
# Where a SMILES comes first, the peptide text is derived from it. [ ]: non-standard residue; d: D form. pGlu = O=C1CC[C@@H](C(=O)O)N1
# Legend:
# [1] = tested on: isolated ilea of female A. aegypti; experiment: Ileal motility assay (video recordings); design: species or system Aedes aegypti; conditions: Figure 6, 1 μM, 5-HT added together with 1 μM RhoprPK2b
# Experimental: Hindgut contraction assays were conducted on isolated […] of female A. aegypti. […] The isolated tissue was secured with minutien pins within a Sylgard-lined petri-dish. Given its high sequence similarity to endogenous A. aegypti PK2 peptides (Supplementary Table S1), we used the R. prolixus PK2b peptide ([Paluzzi and O'Donnell, 2012]), henceforth referred to as RhoprPK2b, for motility bioassays. Commercially synthesized peptides (Genscript, Piscataway, NJ, United States), […] ([…]) and RhoprPK2[…]), were used to examine myomodulatory activity. Serotonin (5-hydroxytryptamine, 5-HT; Sigma-Aldrich, Oakville, ON, Canada), previously shown to stimulate A. aegypti hindgut contractions ([Messer and Brown, 1995]), was used as a stimulatory control. Given the inhibitory properties of myoinhibitory peptides (having the consensus W(X6)W-NH2 carboxyl terminus) on insect hindgut motility ([Lange et al., 2012]), RhoprMIP-7 ([…]; Genscript, Piscataway, NJ, United States; [Paluzzi et al., 2015]) was used as an inhibitory control. […] Unlike the rectum, the mosquito ileum produces weaker contractions that we were unable to measure using an impedance converter as described above. […] The dissected gut was pinned in the midgut and rectum to allow the ileum to freely contract in saline and following treatments. Contractions were recorded for 2 min in saline that was used for baseline activity measurements, followed by three subsequent 2-min recordings, including: […] The RhoprPK2b was added along with the stimulatory or inhibitory compound (5-HT or RhoprMIP-7, respectively), to maintain its 1 μM concentration in the bath. […] To account for any potential changes in tissue contractile activity upon adding solutions to the bath, each of these variables were measured relative to baseline saline recordings of the same preparation as a ratio of change, where a value above or below one indicates an increase or a decrease, (respectively), in the rate, duration or length between each contraction in response to the treatment.
# [2] = tested on: isolated recta of A. aegypti; experiment: Rectal contraction assay (impedance converter); design: species or system Aedes aegypti; conditions: 1 μM, 2-min interval, mean of 6-18 preparations
# Experimental: Hindgut contraction assays were conducted on isolated […] of female A. aegypti. […] The isolated tissue was secured with minutien pins within a Sylgard-lined petri-dish. Given its high sequence similarity to endogenous A. aegypti PK2 peptides (Supplementary Table S1), we used the R. prolixus PK2b peptide ([Paluzzi and O'Donnell, 2012]), henceforth referred to as RhoprPK2b, for motility bioassays. Commercially synthesized peptides (Genscript, Piscataway, NJ, United States), […] ([…]) and RhoprPK2[…]), were used to examine myomodulatory activity. […] To assess whether PK1 peptides plays a role in regulating rectal motility, contractions were monitored in saline to obtain baseline contraction rates and subsequently following […] or 5-HT treatments, using probes connected to an impedance converter (UFI model 2991, Morro Bay, CA, United States) connected to a Powerlab 4/30 and laptop computer running LabChart […].0 software (AD Instruments, Colorado Springs, CO, United States). […] Probes were positioned on either side of the rectum by observation with a dissecting microscope (Olympus SZ61), and contractile responses were recorded on LabChart […].0 software (AD Instruments, Colorado Springs, CO, United States). Contractions were monitored for two minutes prior to, and after the addition of either […] or 5-HT. […]
# A. aegypti PK2-R = molecular target: T1, A. aegypti PK2-R (Aedes aegypti, UniProt V9P4J1); experiment: Heterologous functional receptor assay (aequorin bioluminescence), PK2-R; assay type: cell-based; conditions: CHO-K1 cells expressing PK2-R
# T1 sequence (V9P4J1 1-638): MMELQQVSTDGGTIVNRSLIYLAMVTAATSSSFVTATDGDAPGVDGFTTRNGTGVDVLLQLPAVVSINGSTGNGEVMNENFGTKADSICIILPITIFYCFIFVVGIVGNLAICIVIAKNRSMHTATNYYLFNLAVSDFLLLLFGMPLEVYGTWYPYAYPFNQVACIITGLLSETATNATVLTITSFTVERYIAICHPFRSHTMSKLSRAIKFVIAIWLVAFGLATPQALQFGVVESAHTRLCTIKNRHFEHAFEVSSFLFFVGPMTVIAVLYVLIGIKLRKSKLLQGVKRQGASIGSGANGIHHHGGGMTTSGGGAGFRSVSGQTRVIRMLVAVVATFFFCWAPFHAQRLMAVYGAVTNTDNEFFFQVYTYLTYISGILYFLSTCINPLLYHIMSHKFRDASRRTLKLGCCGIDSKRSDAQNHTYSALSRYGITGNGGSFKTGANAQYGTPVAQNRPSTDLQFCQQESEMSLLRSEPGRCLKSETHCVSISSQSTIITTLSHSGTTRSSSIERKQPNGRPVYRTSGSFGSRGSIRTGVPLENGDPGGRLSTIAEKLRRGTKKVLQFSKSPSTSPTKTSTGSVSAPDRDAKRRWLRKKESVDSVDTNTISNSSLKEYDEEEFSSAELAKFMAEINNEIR
# Text: (§1) The complete open reading frame was amplified based on the partial ([Nene et al., 2007]) and complete sequences ([Choi et al., 2013]) reported earlier for the A. aegypti PK1-R (Genbank accession: EAT35008.1) and PK2-R (Genbank accession: KC155994.1). Forward 5′-[…]-3′ (PK1-R) or 5′-[…]-3′ (PK2-R) and reverse 5′-[…]-3′ (PK1-R) or 5′-[…]-3′ (PK2-R) primers were designed over the start and stop codons (underlined), respectively, and used to amplify the complete coding sequence using Q5 High-Fidelity DNA polymerase following manufacturer recommendations (New England Biolabs, Whitby, ON). […] The resulting products were cloned into pGEM-T Easy sequencing vector, and miniprep samples were sequenced to verify base accuracy. The receptor constructs were excised using standard restriction enzyme digestion and subcloned into the mammalian expression vector, pcDNA 3.1^+ (Life Technologies, Burlington, ON, Canada). Transfection quality plasmid DNA was purified from an overnight bacterial culture using the PureLink MidiPrep Kit (Invitrogen, Burlington, ON, Canada) following manufacturer guidelines.
# (§2) Chinese hamster ovary cells (CHO-K1) described previously ([Paluzzi et al., 2012]; [Gondalia et al., 2016]; [Wahedi and Paluzzi, 2018]) were grown in Dulbecco’s modified eagles medium: nutrient F12 (DMEM:F12) media containing 10% heat-inactivated fetal bovine serum (FBS; Wisent, St. Bruno, QC, Canada), 200 μg/mL geneticin, and antimycotic-antibiotic mixture as described previously ([Wahedi and Paluzzi, 2018]). […] Various concentrations of synthesized PK peptides and other peptides (purity > 90%; Genscript, Piscataway, NJ, United States) were prepared in BSA media and loaded in quadruplicate into white 96-well luminescence plates (Greiner Bio-One, Germany).
# Luminescence responses to A. aegypti CAPA-1 (GPTVGLFAFPRV-NH2), CAPA-2 (pQGLVPFPRV-NH2) and CAPA-PK1 (AGNSGANSGMWFGPRL-NH2) peptides, along with the R. prolixus PK2 orthologs, PK2a (NTVNFSPRL-NH2), and PK2b (SPPFAPRL-NH2) were examined. A list of peptides used in this study and sequence comparison to native A. aegypti pyrokinin peptides is found in Supplementary Table S1. Cells prepared for the functional assay were loaded into each well of the plate using an automated injector unit and luminescent response was measured with a Synergy 2 Multi-Mode Microplate Reader (BioTek, Winooski, VT, United States). Negative controls were carried out using BSA media alone whereas 50 μM ATP, which activates endogenously expressed purinoceptors ([Iredale and Hill, 1993]; [Michel et al., 1998]), was used as a positive control. Luminescence responses were normalized to ATP responses and analyzed in GraphPad Prism 7.02 (GraphPad Software, San Diego, CA, United States). EC50 values were determined using dose-response curves from multiple biological replicates.
# A. aegypti PK1-R = experiment: Heterologous functional receptor assay (aequorin bioluminescence), PK1-R; assay type: cell-based, Aedes aegypti; conditions: CHO-K1 cells expressing PK1-R; luminescent response
# Text: as §1, with “The receptor constructs were excised using standard restriction enzyme digestion and subcloned into the mammalian expression vector, pcDNA 3.1^+ (Life Technologies, Burlington, ON, Canada). Transfection quality plasmid DNA was purified from an overnight bacterial culture using the PureLink MidiPrep Kit (Invitrogen, Burlington, ON, Canada) following manufacturer guidelines.” left out
# as §2, with “Germany). […]” for “Germany).”
# [3] = tested on: anti-RhoprCAPA-2 primary antiserum (antigen EGGFISFPRV-NH2); experiment: Competitive ELISA for antibody cross-reactivity; assay type: binding, rabbit; conditions: antiserum 1:1000; absorbance at 450 nm; mean ± SEM, n = 4; read-out: IC50, competitive ELISA against 1 nM biotinylated-DromeCAPA
# Experimental: In brief, 96-well plates were coated with anti-RhoprCAPA-2 primary antiserum diluted to 1:1000 in carbonate buffer (15 mM Na2CO3-H2O and 35 mM NaHCO3 in water; pH 9.4) and incubated overnight at 4°C. Plate contents were discarded, blotted, and rinsed three times with wash buffer (350 mM NaCl, 2.7 mM KCl, 1.5 mM KH2PO4, 5.15 mM Na2HPO4-H2O, and 0.05% Tween-20 (v/v) in water). Wells were then incubated for 1.5 h on a rocker with block buffer [0.5% skim milk powder (w/v) and 0.5% BSA (w/v) in PBS]. The block solution was discarded, and standard solutions were added (100 μL/well). Standards consisted of AedaeCAPA-1 and AedaeCAPA-2 diluted in block buffer to achieve concentrations ranging from 250 pM to 250 nM, or AedaeCAPA-PK1 and RhoprPK2b from 4.8 nM to 75 uM. After a 1.5 h incubation on a rocker, 1 nM biotinylated-DromeCAPA diluted in block buffer ([MacMillan et al., 2018]) was added (100 μL/well) to compete with the unlabeled peptide standards for antibody binding. Following overnight incubation at 4°C, the wells were washed four times with wash buffer, and incubated at 4°C for 1.5 h with Avidin-HRP (1:2000; Bio-Rad, Mississauga, ON, Canada). […] Reactions were stopped with 100 μL/well 2N HCl and absorbance at 450 nm was measured using a Synergy 2 Multi-Mode Microplate Reader (BioTek, Winooski, VT, United States).
Compound,"ileal contraction frequency relative to baseline ([1]; 2-min recordings, mean of 15 preparations)",duration of each ileal contraction relative to baseline ([1]; 15 preparations),length of time between ileal contractions relative to baseline ([1]; 15 preparations),fold change in contraction rate of female recta relative to baseline in saline ([2]; female recta),fold change in contraction rate of male recta relative to baseline in saline ([2]; male recta),activation of PK2-R (in words) (A. aegypti PK2-R; luminescent response),activation of PK2-R relative to the highly potent pyrokinins (A. aegypti PK2-R; very high concentrations),activation of PK1-R (in words) (A. aegypti PK1-R),IC50 [3]
"NCCc1c[nH]c2ccc(O)cc12 [5-HT, 5-hydroxytryptamine]",2.88 fold,effectively reduced,effectively reduced,1.97 fold,2.48 fold,–,–,–,–
CC(C)C[C@H](NC(=O)CNC(=O)[C@@H]1CCC(=O)N1)C(=O)N[C@H](C(=O)N1CCC[C@H]1C(=O)N[C@@H](Cc1ccccc1)C(=O)N1CCC[C@H]1C(=O)N[C@@H](CCCNC(=N)N)C(=O)N[C@H](C(N)=O)C(C)C)C(C)C [AedaeCAPA-2] ([pGlu]GLVPFPRV-NH2),–,–,–,–,–,only active on PK2-R at very high concentrations,≤ 25%,effective in activating PK1-R at high concentrations,16.9 nM
